This note sets out measurements from US20240352419A1, “METHODS AND COMPOSITIONS FOR DIFFERENTIATION OF PLURIPOTENT STEM CELLS AND DERIVED HEMATOPOIETIC LINEAGE CELLS” (NUWACELL BIOTECHNOLOGIES CO., LTD., priority 2022, published 2024).

The test system of one data set is iNK cells. In words: Stage 3 expansion of iNK cells co-cultured with feeder cells. Format: cell-based, human. To be noted: IL-18 (10-50 ng/mL) combined with IL-2 (100 IU/mL) vs IL-2 only, Stage 3, 2 weeks, FIG. 13B. As for the experimental part:
hiPSCs were prepared as described in CN108373998B. On Day −1, Embryoid body (EB) formation (Stage 1-1) was carried out by placing individualized hiPSCs in E8 medium containing 10 μM Blebbistatin in T25 flasks on a bellydancer and culture overnight. On Day 0, lateral mesoderm differentiation (Stage 1-2) was initiated by changing the medium to a Stage 1-2 differentiation medium comprising IF-4 basal medium and supplemented with BMP4 (25 ng/ml), VEGF (15 ng/ml), bFGF (0.5 ng/ml) and CHIR99021 (4 μM) for 2 days. On Day 2, lateral mesoderm differentiation (Stage 1-3) continued for 1 day in a Stage 1-3 differentiation medium comprising IF-4 basal medium and supplemented with BMP4 (25 ng/ml), VEGF (15 ng/mL) and bFGF (0.5 ng/mL) and CHIR99021 (1 μM). On Day 3, HE specification (Stage 1-4) was initiated by adding a Stage 1-4 differentiation medium comprising IF-4 basal medium and supplemented with VEGF (15 ng/ml), bFGF (5 ng/ml), XAV939 (5 μM) for 1 day. On Day 4 (the end of Stage 1-4), HP differentiation (Stage 1-5) in was initiated by adding a Stage 1-5 differentiation medium comprising IF-4 basal medium and supplemented with SCF (10 ng/ml), Flt3L (10 ng/ml), VEGF (15 ng/ml) and bFGF (5 ng/mL). […] On Day 14 of co-culture, iNK cells were collected and stained with CD56-PE antibody (BD, #555516), and the percentage of CD56+ cells was analyzed by flow cytometry. […]

In a further data set the test system is K562 cells. Kind of data set: Cytotoxicity of Stage 3 iNK cells by CFSE/7AAD assay. To be noted: added to Stage 3 medium (IL-10 20 ng/mL, IL-18 50 ng/mL), E:T 3:1, 4 hr, FIG. 13A. Format: cell-based. As for the experimental part:
hiPSCs were prepared as described in CN108373998B. On Day −1, Embryoid body (EB) formation (Stage 1-1) was carried out by placing individualized hiPSCs in E8 medium containing 10 μM Blebbistatin in T25 flasks on a bellydancer and culture overnight. On Day 0, lateral mesoderm differentiation (Stage 1-2) was initiated by changing the medium to a Stage 1-2 differentiation medium comprising IF-4 basal medium and supplemented with BMP4 (25 ng/mL), VEGF (15 ng/ml), bFGF (0.5 ng/mL) and CHIR99021 (4 μM) for 2 days. On Day 2, lateral mesoderm differentiation (Stage 1-3) continued for 1 day in a Stage 1-3 differentiation medium comprising IF-4 basal medium and supplemented with BMP4 (25 ng/mL), VEGF (50 ng/mL) and bFGF (0.5 ng/mL) and CHIR99021 (1 μM). On Day 3, HE specification (Stage 1-4) was initiated by adding a Stage 1-4 differentiation medium comprising IF-4 basal medium and supplemented with VEGF (15 ng/ml), bFGF (5 ng/ml), XAV939 (5 μM) for 1 day. […] On Day 11 of co-culture, iNK cells were collected and stained with CD56-PE antibody (BD, #555516), the percentage of CD56+ cells was analyzed by flow cytometry. The cytotoxicity of Stage 3 iNK cells towards K562 cells was detected by CFSE/7AAD assay after 4 hr co-culture at E:T of 3:1.

Consider “IL-18: interleukin added to Stage 3 expansion and maturation medium”, for which, in the data set with iNK cells, the “expansion fold of iNK cells” value is recorded as “improve the expansion fold”. Moreover, the “cytotoxicity of iNK cells” value with K562 cells was “significantly improve”.
